The target in experiment [1] is T1, LOX (Mus musculus, UniProt P28301).
T1 construct: Full length LOX cDNA was then PCR cloned into pEGFP-N1 (Clonetech), or biosensor vector proGFP2-N1; expressed in transfected cells; host or cells: MDCK cells grown as cysts on Matrigel
T1 sequence (P28301 163-411): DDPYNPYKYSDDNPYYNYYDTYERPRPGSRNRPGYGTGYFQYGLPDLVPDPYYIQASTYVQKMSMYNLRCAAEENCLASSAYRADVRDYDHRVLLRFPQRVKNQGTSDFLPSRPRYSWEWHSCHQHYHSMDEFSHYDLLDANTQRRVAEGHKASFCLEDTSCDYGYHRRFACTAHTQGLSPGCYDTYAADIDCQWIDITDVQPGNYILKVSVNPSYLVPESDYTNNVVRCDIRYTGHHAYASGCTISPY
Description: LOX activity in cysts assay (roGFP2 LOX biosensor in MDCK cysts). Type of experiment: cell-based. The following applies: for inhibition at 10 µM: read-out: LOX biosensor inhibition (cyst) @ 10 μM. The method, then:
LOX Activity in Cysts Assay (Tang et al, 2017).
Cell Culture and Transfection
Cell lines were purchased from American Type Culture Collection (ATCC). […] MDCK cell lines were cultured in Dulbecco's Modified Eagle Medium (DMEM):F12 media supplemented with 10% foetal bovine serum (FBS) and 1% Penicillin Streptomycin solution (Pen Strep). Cells were incubated at 37° C. in a humidified incubator with 5% CO2. Lipofectamine 3000 or lentivirus was used to transfect MDCK cells with GFP constructs and cells were selected with G418 (Life Technologies) at 5 mg/ml. Cell culture reagents were purchased from Life Technologies.
To produce MDCK cysts, cells were cultured on Matrigel (Corning) with 2% Matrigel supplemented in DMEM with 10% FBS. Cysts were allowed to form for 10 days before subsequent studies.
Cloning of LOX Expression Constructs
Mouse LOX cDNA was purchased from OriGene. Full length LOX cDNA was then PCR cloned into pEGFP-N1 (Clonetech), or biosensor vector proGFP2-N1 (Hanson, 2004) using the following primers, […] (forward primer) and […] (reverse primer). For the insertion into pEGFP-N1 or proGFP2-N1, NheI and XhoI restriction sites were added to forward and reverse primers accordingly. Mutant LOX constructs were made using QuickChange II site-directed mutagenesis kit (Agilent Technologies) following manufacture's protocol using LOX-GFP as template. To generate, roGFP2 versions of LOX mutant constructs, LOX mutant cDNA was transferred from pEGFP-N1 to proGFP2-N1 using NheI and XhoI.
Confocal Imaging and Imaging Analysis
Photomicrographs of live MDCK cysts with a Leica TCS SP8 X confocal system were used to image the biosensor. The oxidised biosensor was excited using a 405 nm laser, while the reduced biosensor was excited with a 488 nm laser. Emission of the biosensor was recorded at 500 nm˜530 nm range using sequential scans. Ratio images were generated following a published protocol {Kardash, 2011 #376}. Note, while the published protocol generates YFP/CFP ratio images, we used it to generate Oxidised/Reduced (roGFP2 ratio) ratio images. The roGFP2 ratio at the basal surface of MDCK cysts was used to indicate LOX inhibition. LOX inhibitors were added 30 min prior to imaging.
The inhibition of LOX in cysts treated with LOX inhibitors compared to control (DMSO vehicle treated) cysts is shown in Table 2. For clarity, readout for DMSO treated cysts represents 0% inhibition (no inhibition) and readout for BAPN at 1 mM is used as 100% inhibition (full inhibition).

The subject of experiment [2] is PDAC KPC TRP53 R172H (p53 mut) cells. The experiment can be described thus: PDAC allograft, primary tumour, R172H (p53 mut). Type of experiment: in vivo, mouse. The following applies: ratio of average tumour volume treated/vehicle; 200 mg/kg po qd; p<0.05. The procedure:
All procedures involving animals were approved by the Animal Welfare and Ethical Review Body of the Institute of Cancer Research and Cancer Research UK Manchester Institute in accordance with National Home Office regulations under the Animals (Scientific Procedures) Act 1986 and according to the guidelines of the Committee of the National Cancer Research Institute Tumour size was determined by caliper measurements of tumour length, width and depth and volume was calculated as volume=0.5236×length×width×depth (mm).
PDAC allografts: CD1 nu/nu female mice at 6 weeks of age were inoculated subcutaneously in the right flank with 2×10^6 PDAC KPC TRP53 R172H (p53 mut) cells at 100 ul suspension per animal. […] Tumours and weights are measured twice weekly using calipers. […] Frozen samples kept at −80 degree centigrade until being analysed and the fixed samples stained according to the desired marker.
For therapeutic efficacy assessment, the ratio of average tumour volume between compound treated and vehicle control treated (T/C) is calculated. […] The efficacy of LOX inhibitors described in this invention, as measured by T/C in a pancreatic cancer model, a colorectal cancer model and a breast cancer model is shown in Table 3 and is significant (p<0.05) for all the data presented.

For experiment [3], the system named is PDAC KP^flC (LOX H1 clone) cells. Description: PDAC allograft, primary tumour, p53 wt, LOX o/e. The class given is in vivo, mouse. The settings on record: ratio of average tumour volume treated/vehicle; 200 mg/kg po qd; p<0.05.
[4] abbreviates: 10 μM, MDCK cysts, DMSO = 0% inhibition, BAPN at 1 mM = 100% inhibition, inhibitors added 30 min prior to imaging.

A word on the inhibition: it is the relative decrease from the control value, in per cent. One may read the IC50 as the concentration that gives 50% inhibition.

Where two headings read alike, the source gives them in different places.

Consider `CCOc1ccc(N2C[C@H]3CN(C(=O)N4CCOCC4)C[C@H]3C2)cc1` [Example 37], for which the inhibition at 10 µM in experiment [1] (setting [4]) is 100%.

Regarding `N#CCCCN1C[C@@H]2CN(c3ccc(N4CCS(=O)(=O)CC4)cc3)C[C@@H]2C1` [Example 32, cis-4-(5-(4-(1,1-Dioxidothiomorpholino)phenyl)hexahydropyrrolo[3,4-c]pyrrol-2(1H)-yl)butanenitrile], in experiment [1] (setting [4]), the inhibition at 10 µM was 100%.

Regarding `CCOc1ccc(N2C[C@H]3CN(C(=O)N4CCC(C#N)CC4)C[C@H]3C2)cc1` [Example 42, 1-(cis-5-(4-ethoxyphenyl)octahydropyrrolo[3,4-c]pyrrole-2-carbonyl)piperidine-4-carbonitrile], the inhibition at 10 µM in experiment [1] (setting [4]) turned out to be 72%.

Regarding `C[C@@]12CN(C(=O)NCCO)C[C@]1(C)CN(c1ccc(N3CCS(=O)(=O)CC3)cc1)C2` [Example 30, cis-5-(4-(1,1-Dioxidothiomorpholino)phenyl)-N-(2-hydroxyethyl)-3a,6a-dimethylhexahydropyrrolo[3,4-c]pyrrole-2(1H)-carboxamide], the inhibition at 10 µM in experiment [1] (setting [4]) came out at 59%.

Regarding `CCOc1ccc(N2C[C@H]3CN(C(=O)Oc4ccc([N+](=O)[O-])cc4)C[C@H]3C2)cc1` [Example 18, 4-Nitrophenyl 5-(4-ethoxyphenyl)hexahydropyrrolo[3,4-c]pyrrole-2(1H)-carboxylate], in experiment [1] (setting [4]), the inhibition at 10 µM was 97%.

Turning to `CCOc1ccc(N2C[C@]3(C)CN(C(=O)NCCO)C[C@]3(C)C2)cc1` [Example 3, cis-5-(4-Ethoxyphenyl)-N-(2-hydroxyethyl)-3a,6a-dimethylhexahydropyrrolo[3,4-c]pyrrole-2(1H)-carboxamide], the IC50 in experiment [1] (MDCK cysts, read-out: LOX biosensor IC50 (cyst)) was 1620 nM. Moreover, the inhibition at 10 µM in experiment [1] (MDCK) came out at 100%. In experiment [2], the “T/C, PDAC (mouse pancreatic carcinoma) primary tumour a) R172H (p53mut)” value is recorded as “a) 0.58”. Further, in experiment [3], the “T/C, PDAC (mouse pancreatic carcinoma) primary tumour b) p53wt, LOX o/e” value is “b) 0.42”.

For the molecule `CCOc1ccc(N2C[C@H]3CN(CCCC#N)C[C@H]3C2)cc1` [Example 2, cis-4-(5-(4-Ethoxyphenyl)hexahydropyrrolo[3,4-c]pyrrol-2(1H)-yl)butanenitrile], the inhibition at 10 µM in experiment [1] (setting [4]) is 65%.

Turning to `O=C(NC1CCCCC1)N1C[C@@H]2CN(c3ccc(N4CCS(=O)(=O)CC4)cc3)C[C@@H]2C1` [Example 9, cis-N-Cyclohexyl-5-(4-(1,1-dioxidothiomorpholino)phenyl)hexahydropyrrolo[3,4-c]pyrrole-2(1H)-carboxamide], the inhibition at 10 µM in experiment [1] (setting [4]) turned out to be 100%.

As to `C[C@@]12CN(C(=O)NCCO)C[C@]1(C)CN(c1ccc(N3CCN(S(C)(=O)=O)CC3)cc1)C2` [Example 28, cis-N-(2-Hydroxyethyl)-3a,6a-dimethyl-5-(4-(4-(methylsulfonyl)piperazin-1-yl)phenyl)hexahydropyrrolo[3,4-c]pyrrole-2(1H)-carboxamide], in experiment [1] (setting [4]), the inhibition at 10 µM was found to be 94%.
